Experimental data: patent US5686486A, “4-hydroxy-benzopyran-2-ones and 4-hydroxy-cycloalkyl[b]pyran-2-ones useful to treat retroviral infections” (priority 1995, dated 1997)

Legend:
HIV-1 protease [1] = biological target: T1, HIV-1 protease (Human immunodeficiency virus type 1 group M subtype B, UniProt P04585); experiment: biochemical; settings: for inhibition at 0.123 µM: read-out: HIV-1 Protease % Inhib, dose 0.123 uM; for inhibition at 0.37 µM: read-out: HIV-1 Protease % Inhib, dose 0.370 uM; for inhibition at 1.1 µM: read-out: HIV-1 Protease % Inhib, dose 1.100 uM; for inhibition at 3.3 µM: read-out: HIV-1 Protease % Inhib, dose 3.300 uM; for inhibition at 10 µM: read-out: HIV-1 Protease % Inhib, dose 10.000 uM; for inhibition at 30 µM: read-out: HIV-1 Protease % Inhib, dose 30.000 uM
Procedure, shortened: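 Biotinylated, FITC-labeled peptide substrate (20 μl of 0.2 μM) incubated with HIV-1 protease (10 μl of 0.1 μM) and compound in 0.1 M sodium acetate pH 5.5, 1.0 M NaCl, 0.05% NP-40, 1 h, room temperature, dark. Streptavidin beads then capture uncleaved substrate; filtered labeled product read by fluorescence, giving percent inhibition.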

HIV-1 protease [2] = biological target: T1, HIV-1 protease; experiment: biochemical; settings: read-out: HIV-1 FITC KI
Procedure, shortened: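 Ki from two-fold serial inhibitor dilutions (24–48 concentrations) with 40 nM HIV-1 protease stock and 200 μM substrate stock, 90 min at room temperature; stopped with avidin beads. Reference inhibitor run in parallel; Ki by nonlinear least-squares fit.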

Molecule	inhibition at 0.123 µM (HIV-1 protease [1])	inhibition at 0.37 µM (HIV-1 protease [1])	inhibition at 1.1 µM (HIV-1 protease [1])	inhibition at 3.3 µM (HIV-1 protease [1])	inhibition at 10 µM (HIV-1 protease [1])	inhibition at 30 µM (HIV-1 protease [1])	Ki (HIV-1 protease [2])	HIV-1 Protease % Inhib (HIV-1 protease [1]; dose 0.123 uM)	HIV-1 Protease % Inhib (HIV-1 protease [1]; dose 0.370 uM)	HIV-1 Protease % Inhib (HIV-1 protease [1]; dose 1.100 uM)	HIV-1 Protease % Inhib (HIV-1 protease [1]; dose 3.300 uM)	HIV-1 Protease % Inhib (HIV-1 protease [1]; dose 10.000 uM)	HIV-1 Protease % Inhib (HIV-1 protease [1]; dose 30.000 uM)
O=c1oc2c(c(O)c1C(c1cccc(NS(=O)(=O)c3ccc(CBr)cc3)c1)C1CC1)CCCCCC2 (stereo not drawn) [Example 403, 4-(Bromomethyl)-N-[3-[cyclopropyl(5,6,7,8,9,10-hexahydro-4-hydroxy-2-oxo-2H-cycloocta[b]pyran-3-yl)methyl]phenyl]-benzenesulfonamide]	41.6%	77.5%	92.9%	94.8%	95.6%	97%	5 nM	–	–	–	–	–	–
O=c1oc2c(c(O)c1[C@H](c1cccc(NS(=O)(=O)c3ccc(S(=O)(=O)c4ccccc4)s3)c1)C1CC1)CCCCCC2 [Example 404]	58.3%	85.3%	103%	108%	106%	103%	2.87 nM	–	–	–	–	–	–
O=c1oc2c(c(O)c1C(c1cccc(NS(=O)(=O)c3cccc(O)c3)c1)C1CC1)CCCCCC2 (stereo not drawn) [Example 405, N-[3-[Cyclopropyl(5,6,7,8,9,10-hexahydro-4-hydroxy-2-oxo-2H-cycloocta[b]pyran-3-yl)methyl]phenyl]-3-hydroxy-benzenesulfonamide]	46.5%	88.6%	101%	106%	101%	77.2%	3.13 nM	–	–	–	–	–	–
O=c1oc2c(c(O)c1C(c1cccc(NS(=O)(=O)c3ccc(O)cc3)c1)C1CC1)CCCCCC2 (stereo not drawn) [Example 407, N-[3-[Cyclopropyl(5,6,7,8,9,10-hexahydro-4-hydroxy-2-oxo-2H-cycloocta[b]pyran-3-yl)methyl]phenyl]-4-hydroxy-benzenesulfonamide]	26.8%	74.7%	91.2%	98.1%	107%	113%	6.6 nM	–	–	–	–	–	–
O=C(COCc1ccccc1)Nc1cccc(S(=O)(=O)Nc2cccc(C(c3c(O)c4c(oc3=O)CCCCCC4)C3CC3)c2)c1 (stereo not drawn) [Example 408, 3-(Benzyloxyacetylamino)-N-[3-[cyclopropyl(5,6,7,8,9,10-hexahydro-4-hydroxy-2-oxo-2H-cycloocta[b]pyran-3-yl)methyl]phenyl]-benzenesulfonamide]	38.4%	70.1%	88.9%	98.5%	91.7%	107%	14 nM	–	–	–	–	–	–
O=C(CO)Nc1cccc(S(=O)(=O)Nc2cccc(C(c3c(O)c4c(oc3=O)CCCCCC4)C3CC3)c2)c1 (stereo not drawn) [Example 409, 3-(Hydroxyacetylamino)-N-[3-[cyclopropyl(5,6,7,8,9,10-hexahydro4-hydroxy-2-oxo-2H-cycloocta[b]pyran-3-yl)methyl]phenyl]-benzenesulfonamide]	65.1%	90.5%	102%	103%	101%	108%	3.3 nM	–	–	–	–	–	–
O=c1oc2c(c(O)c1C(c1cccc(NS(=O)(=O)c3cccc(S(=O)(=O)N4CCOCC4)c3)c1)C1CC1)CCCCCC2 (stereo not drawn) [Example 411, N-[3-[Cyclopropyl(5,6,7,8,9,10-hexahydro-4-hydroxy-2-oxo-2H-cycloocta[b]pyran-3-yl)-methyl]phenyl]-(3-N-morpholinebenzenesulfonyl)benzenesulfonamide]	71.1%	79.4%	98.5%	104%	107%	106%	2.5 nM	–	–	–	–	–	–
O=c1oc2c(c(O)c1C(c1cccc(NS(=O)(=O)c3cccc(S(=O)(=O)NCc4ccccc4)c3)c1)C1CC1)CCCCCC2 (stereo not drawn) [Example 412, N-[3-[Cyclopropyl(5,6,7,8,9,10-hexahydro-4-hydroxy-2-oxo-2H-cycloocta[b]pyran-3-yl)-methyl]phenyl]-(3-N-benzylbenzenesulfonyl)benzenesulfonamide]	37.8%	69.2%	92%	102%	99%	102%	9.2 nM	–	–	–	–	–	–
O=c1oc2c(c(O)c1C(c1cccc(NS(=O)(=O)c3cccc(S(=O)(=O)N(Cc4ccccc4)Cc4ccccc4)c3)c1)C1CC1)CCCCCC2 (stereo not drawn) [Example 413, N-[3-[Cyclopropyl(5,6,7,8,9,10-hexahydro-4-hydroxy-2-oxo-2H-cycloocta[b]pyran-3-yl)-methyl]phenyl]-(3-N,N-dibenzylbenzenesulfonyl)benzenesulfonamide]	–	17.4%	43.1%	77.7%	95.2%	92.7%	104 nM	–	–	–	–	–	–
COCCOCCOCCOc1ccc(S(=O)(=O)Nc2cccc(C(c3c(O)c4c(oc3=O)CCCCCC4)C3CC3)c2)cc1 (stereo not drawn) [Example 415, Benzenesulfonamide, N-[3-[cyclopropyl(5,6,7,8,9,10-hexahydro-4-hydroxy-2-oxo-2H-cycloocta[b]pyran-3-yl)methyl]phenyl]-4-[2-[2-(2-methoxyethoxy)ethoxy]ethoxy]-]	126%	121%	128%	124%	125%	120%	2.3 nM	–	–	–	–	–	–
CC(C)CC(c1cccc(NS(=O)(=O)c2ccc(C#N)cc2)c1)c1c(O)c2c(oc1=O)CCCCCC2 (stereo not drawn) [Example 426, Benzenesulfonamide, 4-cyano-N-[3-[1-(5,6,7,8,9,10-hexahydro-4-hydroxy-2-oxo-2H-cycloocta[b]pyran-3-yl)-3-methylbutyl]phenyl]-]	102%	117%	109%	102%	102%	106%	1.48 nM	–	–	–	–	–	–
CC(C)CC(c1cccc(NS(=O)(=O)c2cn(C)cn2)c1)c1c(O)c2c(oc1=O)CCCCCC2 (stereo not drawn) [Example 427, 1H-Imidazole-4-sulfonamide, N-[3-[1-(5,6,7,8,9,10-hexahydro-4-hydroxy-2-oxo-2H-cycloocta[b]pyran-3-yl)-3-methylbutyl]phenyl]-1-methyl-]	94.2%	92.8%	91.2%	90%	89.6%	81.9%	0.65 nM	–	–	–	–	–	–
CCCC(c1cccc(NS(=O)(=O)c2cn(C)cn2)c1)c1c(O)c2c(oc1=O)CCCCCC2 (stereo not drawn) [Example 431, 1H-imidazole-4-sulfonamide, N-[3-[1-(5,6,7,8,9,10-hexahydro-4-hydroxy-2-oxo-2H-cycloocta[b]pyran-3-yl)butyl]phenyl]-1-methyl-]	109%	109%	109%	112%	105%	106%	0.89 nM	–	–	–	–	–	–
CCCC(c1cccc(NS(=O)(=O)c2cccc3cccnc23)c1)c1c(O)c2c(oc1=O)CCCCCC2 (stereo not drawn) [Example 432, 8-Quinolinesulfonamide, N-[3-[1-(5,6,7,8,9,10-hexahydro4-hydroxy-2-oxo-2H-cycloocta[b]pyran-3-yl)butyl]phenyl]-]	101%	104%	111%	109%	107%	98%	1.65 nM	–	–	–	–	–	–
CCCC(c1cccc(NS(=O)(=O)c2cccnc2)c1)c1c(O)c2c(oc1=O)CCCCCC2 (stereo not drawn) [Example 433, 3-Pyridinesulfonamide, N-[3-[1-(5,6,7,8,9,10-hexahydro-4-hydroxy-2-oxo-2H-cycloocta[b]pyran-3-yl)butyl]phenyl]-]	103%	109%	104%	104%	109%	108%	2.24 nM	–	–	–	–	–	–
O=c1oc2c(c(O)c1C1(c3ccccc3)CCC1)CCCCCC2 [Example 483, 3-(Phenylcyclobutyl)-5,6,7,8,9,10-hexahydro-4-hydroxy-2H-cycloocta[b]pyran-2-one]	–	44.8%	73.2%	85.2%	69.5%	76.7%	33 nM	–	–	–	–	–	–
Nc1cc(NS(=O)(=O)c2ccccc2)cc(C(c2c(O)c3c(oc2=O)CCCCCC3)C2CC2)c1 (stereo not drawn) [Example 486]	–	40%	74%	97.5%	126%	109%	55 nM	–	–	–	–	–	–
N-[3-[Cyclopropyl(5,6,7,8,9,10-hexahydro-4-hydroxy-2-oxo-2H-cycloocta[b]pyran-3-yl)-methyl]phenyl]-(3-N-ethylbenzenesulfonyl)benzenesulfonamide [Example 414]	–	–	–	–	–	–	3.5 nM	62.73%	85.78%	103.16%	105.93%	104.38%	109.61%
